# Measurements published in patent US12492370B2, “Method for producing protein using a Talaromyces cellulolyticus strain having reduced activity of PEP4” (AJINOMOTO CO., INC., priority 2020, dated 2025).
# Non-standard residues stand in square brackets, D forms with d. Residues, ends and D or L forms follow the SMILES beside them. *: point of attachment. Sta = CC(C)C[C@H](N)[C@@H](O)CC(=O)O; Isovaleryl = CC(C)CC(=O)*
# Legend:
# [1] = tested on: protease activity of the culture supernatant of the Δpep4 strain; assay: Protease activity of Δpep4 strain culture supernatant with pepstatin A added; assay type: biochemical, Talaromyces cellulolyticus
# Protocol: (§1) The protein concentration of the culture supernatant of each strain was measured using Protein Assay CBB (Nacalai Tesque). To confirm protease activity against casein, protease activity was measured using Amplite™ Universal Fluorimetric Protease Activity Assay Kit *Green (AAT Bioquest, Inc.). At the same time, protease activity was also measured under conditions in which an aspartate protease inhibitor pepstatin A was added.
# (§2) A 50-μL aliquot of a 2× assay buffer included in the kit containing 0.5 μL of a protease substrate included in the kit (green fluorescent casein substrate) was dispensed into a 96-well plate (Greiner, product number: 655090), and 50 μL of the culture supernatants of the control strain and the Δpep4 strain were added to respective wells. Under conditions with pepstatin A addition, pepstatin A (Sigma-Aldrich, product number: P2032) was added at a final concentration of 10 μM. Protease activity was measured by measuring Relative Fluorescence Units (RFU, excitation/emission=490/525 nm) every 2 minutes at 37° C. using a microplate reader system SpectraMax® M2 (Molecular Devices). The obtained RFU was divided by the total amount of protein used in the measurement and the reaction time, to thereby calculate the protease specific activity per total amount of protein in the culture supernatant. In the table, the term “relative activity” represents the ratio of the protease specific activity of each sample to the protease specific activity of the control strain in the absence of pepstatin A. In the absence of pepstatin A, the protease specific activity of the culture supernatant of the Δpep4 strain was reduced to approximately 36% of that of the control strain.
# [2] = tested on: protease activity of the culture supernatant of the control strain; assay: Protease activity of control strain culture supernatant with pepstatin A added; assay type: biochemical, Talaromyces cellulolyticus
# Protocol: as §1, §2
# [3] = Pepstatin A 10 μM, ratio to control strain in the absence of pepstatin A
structure (smiles),measurement,setting,value
"CC(C)CC(=O)N[C@H](C(=O)N[C@H](C(=O)N[C@@H](CC(C)C)[C@@H](O)CC(=O)N[C@@H](C)C(=O)N[C@@H](CC(C)C)[C@@H](O)CC(=O)O)C(C)C)C(C)C [Pepstatin A, pepstatin A] (Isovaleryl-VV[Sta]A[Sta]-OH)",Protease specific activity,"[1]; Pepstatin A 10 μM, 37° C.",0.016 RFU/ug/min
same,Relative activity,[1]; [3],34%
same,difference in protease specific activity between presence or absence of pepstatin A,[1]; pepstatin A 10 μM,almost no difference
same,Protease specific activity,"[2]; Pepstatin A 10 μM, 37° C.",0.006 RFU/ug/min
same,Relative activity,[2]; [3],12%
same,protease specific activity inhibited by pepstatin A,[2]; pepstatin A 10 μM,about 88%
